For 58 molecules, inhibition of growth results are on record in patent US20040010036A1, “N,N, -Substituted s-Aryl-Isothioureas, N,N,N, -Substituted s-Aryl-Isothioureas and combinatorial libraries thereof” (priority 2002, published 2004).

In this test the test system is Streptococcus pyogenes (ATCC# 97-03 14289). The test is described as follows: Anti-microbial screen (percent inhibition of growth, OD 570 nm). The format is cell-based. As to conditions: Conc 0.1776 mg ml. How it is done:
Streptococcus pyogenes (ATCC# 97-03 14289) was grown in Todd Hewitt Broth (THB) (Difco Laboratories #0492-17-6) overnight until reaching an optical density of (OD=0.636@570 nm) by reading 0.1 ml in a 96 well microtiter plate in a Molecular Devices Thermomax. This preparation was kept frozen as stocks in 30% v/v glycerol in 1.5 ml aliquots at […] until use. Prior to experiments, 6 ml aliquots were thawed and diluted into 50 ml 2×THB. 60 ul of this dilution was added to 92 wells of microtiter plate. To three wells THB (200 ul) was added to serve as a blank and a sterility control. Test compounds in DMSO and appropriate concentrations of DMSO were added to Growth/Solvent Controls at 0 time. Plates were read at 0 time at 570 nm in the Molecular Devices plate reader to obtain compounds correction factors for insoluble or colored compounds. Plates were read again at 4 hours.
Percent inhibition is calculated with the following formula:
Color correct=O.D. 0 hr - Blank 0 hr)-(Solvent Control Ohr - Blank 0 hr) [formula]

[1] abbreviates: Spy4H: Streptococcus pyogenes, read at 4 hours, OD 570 nm.
[2] abbreviates: Streptococcus pyogenes, Assay Spy4H, plates read at 570 nm at 0 time and at 4 hours.

Consider `COc1cccc(CN(Cc2cccc(O)c2)/C(=N/c2ccc(Cl)c(Cl)c2)Sc2cccc(OC)c2)c1` [Cmpd 328], for which testing at 177.6 µg/mL under setting [1] gave an inhibition of growth of 98.9%.

With `COc1cccc(CN(Cc2cccc(O)c2)/C(=N/c2cc(Cl)cc(Cl)c2)Sc2cccc(OC)c2)c1` [Cmpd 333], under setting [1], the inhibition of growth – broadly, the share of the control response that was lost under treatment – at 177.6 µg/mL turned out to be 67.2%.

In turn, `COc1cccc(CN(Cc2cccc(O)c2)/C(=N/c2ccc(F)c(Cl)c2)Sc2cccc(OC)c2)c1` [Cmpd 334] displayed an inhibition of growth at 177.6 µg/mL under setting [2] of 50.6%.

For `COc1cccc(CN(Cc2cccc(O)c2)/C(=N/c2ccc(Cl)c([N+](=O)[O-])c2)Sc2cccc(OC)c2)c1` [Cmpd 343], at 177.6 µg/mL the inhibition of growth under setting [2] was 52.7%.

Under setting [1], `COc1cccc(CN(Cc2cccc(O)c2)/C(=N\c2ccc(Cl)c(C(F)(F)F)c2)Sc2cccc(OC)c2)c1` [Cmpd 353] showed an inhibition of growth at 177.6 µg/mL of 59.1%.

As for `COc1cccc(S/C(=N\Cc2cccc(C)c2)N(CCc2ccc(Cl)cc2)Cc2ccc(O)cc2)c1` [Cmpd 362], the inhibition of growth at 177.6 µg/mL under setting [2] amounted to 50.9%.

In turn, `COc1cccc(S/C(=N\c2cccc(F)c2)N(CCc2ccc(Cl)cc2)Cc2ccc(O)cc2)c1` [Cmpd 363] displayed an inhibition of growth at 177.6 µg/mL under setting [2] of 50.3%.

In turn, `COc1cccc(S/C(=N\Cc2ccc(F)cc2)N(CCc2ccc(Cl)cc2)Cc2ccc(O)cc2)c1` [Cmpd 364] showed an inhibition of growth at 177.6 µg/mL under setting [1] of 66.9%.

The molecule `COc1cccc(S/C(=N\c2cccc(C(F)(F)F)c2)N(CCc2ccc(Cl)cc2)Cc2ccc(O)cc2)c1` [Cmpd 366] came in with an inhibition of growth at 177.6 µg/mL under setting [2] of 49.1%.

As for `COc1cccc(S/C(=N\c2ccc(C(F)(F)F)cc2)N(CCc2ccc(Cl)cc2)Cc2ccc(O)cc2)c1` [Cmpd 367], 177.6 µg/mL produced 70.5% inhibition of growth under setting [1].

For the molecule `COc1cccc(S/C(=N\c2cc(Cl)cc(Cl)c2)N(CCc2ccc(Cl)cc2)Cc2ccc(O)cc2)c1` [Cmpd 373], at 177.6 µg/mL the inhibition of growth under setting [1] was 75%.

With `COc1cccc(S/C(=N\c2ccc(Cl)c([N+](=O)[O-])c2)N(CCc2ccc(Cl)cc2)Cc2ccc(O)cc2)c1` [Cmpd 383], the inhibition of growth at 177.6 µg/mL under setting [2] is 56.7%.

Consider `COc1cccc(S/C(=N/c2ccc(Cl)c(C(F)(F)F)c2)N(CCc2ccc(Cl)cc2)Cc2ccc(O)cc2)c1` [Cmpd 393], for which testing at 177.6 µg/mL under setting [2] gave an inhibition of growth of 54.5%.

Take `COc1cccc(S/C(=N\c2ccc(F)c(F)c2)N(CCc2ccc(Cl)cc2)Cc2ccc(O)cc2)c1` [Cmpd 396]: under setting [2], the inhibition of growth at 177.6 µg/mL was found to be 54.2%.

Under setting [1], `Cc1ccc(CN(Cc2cccc(O)c2)/C(=N/c2ccc(C(F)(F)F)cc2)Sc2ccc(C)cc2)cc1` [Cmpd 407] displayed an inhibition of growth at 177.6 µg/mL of 71.7%.

Under setting [1], `Cc1ccc(CN(Cc2cccc(O)c2)/C(=N/c2cc(Cl)cc(Cl)c2)Sc2ccc(C)cc2)cc1` [Cmpd 413] returned an inhibition of growth at 177.6 µg/mL of 57.6%.

`Cc1ccc(CN(Cc2cccc(O)c2)/C(=N/c2ccc(F)c(Cl)c2)Sc2ccc(C)cc2)cc1` [Cmpd 414]: the inhibition of growth at 177.6 µg/mL under setting [2] stood at 49.1%.

On to `Cc1ccc(CN(Cc2cccc(O)c2)/C(=N/c2ccc(Cl)c([N+](=O)[O-])c2)Sc2ccc(C)cc2)cc1` [Cmpd 423], for which the inhibition of growth at 177.6 µg/mL under setting [2] came out at 57.3%.

`Cc1ccc(CN(Cc2cccc(O)c2)/C(=N/c2ccccc2[N+](=O)[O-])Sc2ccc(C)cc2)cc1` [Cmpd 426] showed an inhibition of growth at 177.6 µg/mL under setting [1] of 67.4%.

In turn, `COc1ccc(C)cc1/N=C(\Sc1ccc(C)cc1)N(Cc1ccc(C)cc1)Cc1cccc(O)c1` [Cmpd 429] showed an inhibition of growth at 177.6 µg/mL under setting [1] of 79.5%.

`Cc1ccc(CN(Cc2cccc(O)c2)/C(=N\c2ccc(Cl)c(C(F)(F)F)c2)Sc2ccc(C)cc2)cc1` [Cmpd 433] gave an inhibition of growth at 177.6 µg/mL under setting [2] of 51.7%.

The molecule `Cc1ccc(CN(Cc2cccc(O)c2)/C(=N/Cc2ccc(F)cc2)Sc2cccc(C)c2)cc1` [Cmpd 444] gave an inhibition of growth at 177.6 µg/mL under setting [2] of 56.6%.

On to `Cc1ccc(CN(Cc2cccc(O)c2)/C(=N/c2ccc(C(F)(F)F)cc2)Sc2cccc(C)c2)cc1` [Cmpd 447], for which the inhibition of growth at 177.6 µg/mL under setting [1] came to 99.5%.

`Cc1ccc(CN(Cc2cccc(O)c2)/C(=N/c2cc(Cl)cc(Cl)c2)Sc2cccc(C)c2)cc1` [Cmpd 453] came in with an inhibition of growth at 177.6 µg/mL under setting [1] of 60.5%.

Take `Cc1ccc(CN(Cc2cccc(O)c2)/C(=N/c2ccc(Cl)c([N+](=O)[O-])c2)Sc2cccc(C)c2)cc1` [Cmpd 463]: the inhibition of growth at 177.6 µg/mL under setting [1] was 86.7%.

`Cc1ccc(CN(Cc2cccc(O)c2)/C(=N/c2ccccc2[N+](=O)[O-])Sc2cccc(C)c2)cc1` [Cmpd 466]: the inhibition of growth at 177.6 µg/mL under setting [1] turned out to be 69.7%.

Molecule `COc1ccc(C)cc1/N=C(\Sc1cccc(C)c1)N(Cc1ccc(C)cc1)Cc1cccc(O)c1` [Cmpd 469] gave an inhibition of growth at 177.6 µg/mL under setting [2] of 53%.

Molecule `Cc1ccc(CN(Cc2cccc(O)c2)/C(=N\c2ccc(Cl)c(C(F)(F)F)c2)Sc2cccc(C)c2)cc1` [Cmpd 473] registered an inhibition of growth at 177.6 µg/mL under setting [1] of 57.6%.

`Cc1ccc(S/C(=N/c2ccc(C(F)(F)F)cc2)N(Cc2ccccc2)Cc2ccc(O)cc2)c(C)c1` [Cmpd 487] returned an inhibition of growth at 177.6 µg/mL under setting [1] of 82.8%.

On to `Cc1ccc(S/C(=N\c2cc(Cl)cc(Cl)c2)N(Cc2ccccc2)Cc2ccc(O)cc2)c(C)c1` [Cmpd 493], for which testing at 177.6 µg/mL under setting [2] gave an inhibition of growth of 55.6%.

As to `Cc1ccc(S/C(=N/c2ccc(Cl)c([N+](=O)[O-])c2)N(Cc2ccccc2)Cc2ccc(O)cc2)c(C)c1` [Cmpd 503], the inhibition of growth at 177.6 µg/mL under setting [2] was determined as 57.3%.

Under setting [2], `Cc1ccc(S/C(=N/c2ccc(Cl)c(C(F)(F)F)c2)N(Cc2ccccc2)Cc2ccc(O)cc2)c(C)c1` [Cmpd 513] yielded an inhibition of growth at 177.6 µg/mL of 52.9%.

For `Cc1cccc(S/C(=N/Cc2ccccc2)N(Cc2cccc(O)c2)CC(C)C)c1` [Cmpd 521], testing at 177.6 µg/mL under setting [2] gave an inhibition of growth of 50.6%.

For `Cc1cccc(C/N=C(/Sc2cccc(C)c2)N(Cc2cccc(O)c2)CC(C)C)c1` [Cmpd 522], 177.6 µg/mL produced 54.6% inhibition of growth under setting [2].

As to `Cc1cccc(S/C(=N/Cc2ccc(F)cc2)N(Cc2cccc(O)c2)CC(C)C)c1` [Cmpd 524], under setting [1], the inhibition of growth at 177.6 µg/mL worked out at 89.5%.

The molecule `Cc1cccc(S/C(=N/c2cccc(C(F)(F)F)c2)N(Cc2cccc(O)c2)CC(C)C)c1` [Cmpd 526] yielded an inhibition of growth at 177.6 µg/mL under setting [2] of 50%.

In the case of `Cc1cccc(S/C(=N/c2ccc(C(F)(F)F)cc2)N(Cc2cccc(O)c2)CC(C)C)c1` [Cmpd 527], testing at 177.6 µg/mL under setting [1] gave an inhibition of growth of 96.4%.

For `Cc1cccc(S/C(=N/c2cc(Cl)cc(Cl)c2)N(Cc2cccc(O)c2)CC(C)C)c1` [Cmpd 533], 177.6 µg/mL produced 52% inhibition of growth under setting [2].

`COc1ccc(C)cc1/N=C(/Sc1cccc(C)c1)N(Cc1cccc(O)c1)CC(C)C` [Cmpd 549]: at 177.6 µg/mL the inhibition of growth under setting [1] was 62.9%.

On to `COCCN(Cc1ccc(O)cc1)/C(=N\c1cc(Cl)cc(Cl)c1)Sc1ccc(C)cc1` [Cmpd 653], for which, under setting [1], 177.6 µg/mL produced 80.2% inhibition of growth.

Under setting [2], `CCc1cccc(/N=C(/Sc2ccc(C)cc2)N(CCOC)Cc2ccc(O)cc2)c1` [Cmpd 658] came in with an inhibition of growth at 177.6 µg/mL of 53%.

With `COCCN(Cc1ccc(O)cc1)/C(=N\c1ccc(Cl)c([N+](=O)[O-])c1)Sc1ccc(C)cc1` [Cmpd 663], the inhibition of growth at 177.6 µg/mL under setting [2] is 54.8%.

Molecule `COCCN(Cc1ccc(O)cc1)/C(=N\c1ccc(Cl)c(C(F)(F)F)c1)Sc1ccc(C)cc1` [Cmpd 673] came in with an inhibition of growth at 177.6 µg/mL under setting [1] of 72.8%.

With `COCCN(Cc1ccc(O)cc1)/C(=N\c1ccc(F)c(F)c1)Sc1ccc(C)cc1` [Cmpd 676], the inhibition of growth at 177.6 µg/mL under setting [1] was 87.5%.

Take `Cc1cccc(S/C(=N\Cc2ccc(F)cc2)N(CCc2ccc(Cl)cc2)Cc2cccc(O)c2)c1` [Cmpd 684]: at 177.6 µg/mL the inhibition of growth under setting [1] was 94.1%.

In turn, `Cc1cccc(S/C(=N\c2cccc(C(F)(F)F)c2)N(CCc2ccc(Cl)cc2)Cc2cccc(O)c2)c1` [Cmpd 686] returned an inhibition of growth at 177.6 µg/mL under setting [1] of 68.4%.

Consider `Cc1cccc(S/C(=N\c2ccc(F)c(Cl)c2)N(CCc2ccc(Cl)cc2)Cc2cccc(O)c2)c1` [Cmpd 694], for which the inhibition of growth at 177.6 µg/mL under setting [1] is 62.5%.

As to `Cc1cccc(S/C(=N\c2ccccc2[N+](=O)[O-])N(CCc2ccc(Cl)cc2)Cc2cccc(O)c2)c1` [Cmpd 706], under setting [1], the inhibition of growth at 177.6 µg/mL is 63.6%.

Under setting [2], `COc1ccc(C)cc1/N=C(\Sc1cccc(C)c1)N(CCc1ccc(Cl)cc1)Cc1cccc(O)c1` [Cmpd 709] gave an inhibition of growth at 177.6 µg/mL of 49.7%.

Consider `CCCCN(Cc1cccc(O)c1)/C(=N\Cc1ccc(F)cc1)Sc1ccccc1` [Cmpd 724], for which the inhibition of growth at 177.6 µg/mL under setting [1] turned out to be 83.3%.

On to `CCCCN(Cc1cccc(O)c1)/C(=N\c1ccc(C(F)(F)F)cc1)Sc1ccccc1` [Cmpd 727], for which, under setting [2], 177.6 µg/mL produced 56.3% inhibition of growth.

Take `CCCCN(Cc1cccc(O)c1)/C(=N\c1cc(Cl)cc(Cl)c1)Sc1ccccc1` [Cmpd 733]: at 177.6 µg/mL the inhibition of growth under setting [1] was 63.5%.

Regarding `CCCCN(Cc1cccc(O)c1)/C(=N\c1ccc(F)c(Cl)c1)Sc1ccccc1` [Cmpd 734], the inhibition of growth at 177.6 µg/mL under setting [1] stood at 89.6%.

As to `CCCCN(Cc1cccc(O)c1)/C(=N\c1ccc(Cl)c([N+](=O)[O-])c1)Sc1ccccc1` [Cmpd 743], 177.6 µg/mL produced 64.2% inhibition of growth under setting [1].

`CCCCN(Cc1cccc(O)c1)/C(=N\c1ccc(Cl)c(C(F)(F)F)c1)Sc1ccccc1` [Cmpd 753] gave an inhibition of growth at 177.6 µg/mL under setting [1] of 66%.

Regarding `CCCCN(Cc1cccc(O)c1)/C(=N\c1ccc(F)c(F)c1)Sc1ccccc1` [Cmpd 756], at 177.6 µg/mL the inhibition of growth under setting [1] was 71.9%.

Under setting [2], `COc1cccc(CN(Cc2ccc(O)cc2)/C(=N/c2ccc(C(F)(F)F)cc2)Sc2cccc(OC)c2)c1` [Cmpd 767] gave an inhibition of growth at 177.6 µg/mL of 52.4%.

Under setting [1], `COc1cccc(CN(Cc2ccc(O)cc2)/C(=N/c2cc(Cl)cc(Cl)c2)Sc2cccc(OC)c2)c1` [Cmpd 773] came in with an inhibition of growth at 177.6 µg/mL of 68.4%.
